Where two headings read alike, the source gives them in different places.
Assays:
[1] = system: Candida albicans strain with moderate resistance to fluconazole; format: in vivo, mice; settings: fluconazole alone 4 mg/kg/day, carvacrol alone 30 mg/kg/day; for survival: mice, gavage from 24 h post-infection, seven days, composition fluconazole 2 mg/kg + carvacrol 30 mg/kg, FIG. 2; for Candida albicans loads in kidney, lung and bone marrow: organs of mice which died during the experiment
From the text: FIG. 2 presents the results of in vivo tests in a systemic candidiasis model in experimentally infected mice either untreated, or treated with fluconazole alone, treated with carvacrol alone, or treated with a pharmaceutical composition according to the invention comprising fluconazole and carvacrol.
Groups of 15 mice were experimentally infected by intravenous injection of 10,000,000 cells (colony-forming units) of a Candida albicans strain with moderate resistance to fluconazole.
The first group was composed of control mice which were infected and untreated.
The second group was composed of infected mice treated by gavage, 24 h post-infection, with fluconazole alone at a dose of 4 mg/kg of body weight/day.
The third group was composed of infected mice treated by gavage, 24 h post-infection, with carvacrol alone at a dose of 30 mg/kg of body weight/day.
The fourth group was composed of infected mice treated by gavage, 24 h post-infection, with fluconazole 2 mg/kg of body weight and with carvacrol 30 mg/kg of body weight.
The duration of treatment was seven days for surviving animals. The survival rate was measured over time. […] All the other mice died between the second and seventh day post-infection.

Candida albicans = assay: Static tests: minimal inhibitory (MIC) and minimal fungicidal concentration (MFC) on Candida albicans strains; format: cell-based
Experimental: In Vitro Tests: Determination of Minimal Fungicidal Concentration (MFC) on Different Strains of Candida albicans
The experiment was carried out with several strains of Candida albicans having different susceptibilities isolated in the hospital environment from the mouth, vagina and digestive tract. […] An antifungal pharmaceutical composition was prepared by mixing fluconazole at different concentrations with carvacrol at a sub-inhibitory concentration of 0.3 g per liter of solution or excipient. This pharmaceutical composition according to the invention was named FLUC-P for potentiated fluconazole. In each case, antifungal activity was determined either with fluconazole alone, or with carvacrol alone, or with the composition of the invention.
Table 1 gives the results of static tests to determine the minimal fungicidal concentration (MFC) in μg/ml.
(§1) The experiment was carried out with several strains of Candida albicans having different susceptibilities isolated in the hospital environment. The antifungal agent used was voriconazole, an azole derivative and one of the most recent antifungals on the market. An antifungal pharmaceutical composition according to the invention was prepared by mixing voriconazole at different concentrations with carvacrol at a sub-inhibitory concentration of 0.3 g per liter of solution or excipient. This pharmaceutical composition according to the invention was named Vorico-P for potentiated voriconazole. In each case, antifungal activity was determined either with voriconazole alone, or with carvacrol alone, or with the composition of the invention.
Table 2 gives the results of static tests to determine the minimal inhibitory concentration (MIC) and the minimal fungicidal concentration (MFC) in μg/ml.
as §1, with “caspofungin, from the echinocandin family, which is” for “voriconazole, an azole derivative and”, “newest” for “most recent”, “caspofungin” for “voriconazole”, “Caspo-P” for “Vorico-P”, “caspofungin.” for “voriconazole.”
Table 3 gives the results of static tests to determine the minimal inhibitory concentration (MIC) and the minimal fungicidal concentration (MFC) in μg/ml.
The experiment was carried out with several strains of Candida albicans having different susceptibilities isolated in the hospital environment. The antifungal agent used was 5-fluorocytosine, from the pyrimidine group, which is one of the oldest antifungal agents. An antifungal pharmaceutical composition according to the invention was prepared by mixing 5-fluorocytosine at different concentrations with eugenol at a sub-inhibitory concentration of 0.5 g per liter of solution or excipient. This pharmaceutical composition according to the invention was named Fluoro-P for potentiated 5-fluorocytosine. In each case, antifungal activity was determined either with 5-fluorocytosine alone, or with eugenol alone, or with the composition of the invention.
Table 4 gives the results of static tests to determine the minimal inhibitory concentration (MIC) and the minimal fungicidal concentration (MFC) in μg/ml.

Aspergillus niger = assay: Static tests: MIC and MFC on Aspergillus niger strains; format: cell-based
Experimental: The experiment was carried out with several strains of Aspergillus niger which were not susceptible to fluconazole. The antifungal agent used was fluconazole, an azole derivative and one of the most widely used antifungals. […] Aspergillosis, caused by microorganisms from the family Aspergillus sp, represents the most common and most difficult-to-treat infection. An antifungal pharmaceutical composition according to the invention was prepared by mixing fluconazole at different concentrations with carvacrol at a sub-inhibitory concentration of 0.25 g per liter of solution or excipient. This pharmaceutical composition according to the invention was named Fluc-P for potentiated fluconazole. In each case, antifungal activity was determined either with fluconazole alone, or with carvacrol alone, or with the composition of the invention.
Table 5 gives the results of static tests to determine the minimal inhibitory concentration (MIC) and the minimal fungicidal concentration (MFC) in μg/ml.

`OC(Cn1cncn1)(Cn1cncn1)c1ccc(F)cc1F` [Fluconazole, fluconazole] was tested, and the survival [1] was “died during the experiment”, the “Candida albicans loads in kidney, lung and bone marrow” value [1] was “high loads” and the MFC (Candida albicans; Candida albicans, Example 1, highly resistant strain, exponential growth phase, substance alone, read-out: MFC) was greater than 300 µg/mL. For the same compound, the MFC (Candida albicans; Candida albicans, Example 1, moderately resistant strain, exponential growth phase, substance alone, read-out: MFC) was 150 µg/mL, the MFC (Candida albicans; Candida albicans, Example 1, susceptible strain, exponential growth phase, substance alone, read-out: MFC) was 0.5 µg/mL and the MIC (Aspergillus niger; Example 5, 12 different strains of Aspergillus niger, fluconazole alone) was greater than 1000 µg/mL.
With `Cc1ccc(C(C)C)cc1O` [Carvacrol, carvacrol] the survival [1] was “died during the experiment”, the “Candida albicans loads in kidney, lung and bone marrow” value [1] was “high loads” and the MFC (Candida albicans; Candida albicans) was 1000 µg/mL. The MFC (Candida albicans; Example 1, highly resistant strain, exponential growth phase, substance alone) was 1000 µg/mL, the MFC (Candida albicans; Example 1, moderately resistant strain, exponential growth phase, substance alone) was 1000 µg/mL and the MFC (Candida albicans; Example 2, resistant strain, carvacrol alone) was 1000 µg/mL. The MFC (Candida albicans; Example 2, susceptible strain, carvacrol alone) was 1000 µg/mL, the MFC (Candida albicans; Example 3, resistant strain, carvacrol alone) was 1000 µg/mL and the MFC (Candida albicans; Example 3, susceptible strain, carvacrol alone) was 1000 µg/mL. The MFC (Aspergillus niger; Aspergillus niger) was 500 µg/mL.
Work on `C=CCc1ccc(O)c(OC)c1` [Eugenol, eugenol] yielded an MFC (Candida albicans; Candida albicans, Example 4, resistant strain, eugenol alone, read-out: MFC) of 2000 µg/mL and an MFC (Candida albicans; Candida albicans, Example 4, susceptible strain, eugenol alone, read-out: MFC) of 2000 µg/mL.
For `C[C@@H](c1ncncc1F)[C@](O)(Cn1cncn1)c1ccc(F)cc1F` [Voriconazole, voriconazole], the MIC (Candida albicans; Candida albicans, Example 2, resistant strain, voriconazole alone) was 10 µg/mL, the MIC (Candida albicans; Candida albicans, Example 2, susceptible strain, voriconazole alone) was less than 0.05 µg/mL and the “voriconazole concentration producing fungicidal activity versus fungistatic concentration of voriconazole alone” value (Candida albicans; resistant strains, with carvacrol 0.3 mg/ml) was “at least ten times lower”.
With `CC[C@H](C)C[C@H](C)CCCCCCCCC(=O)N[C@H]1C[C@@H](O)[C@@H](NCCN)NC(=O)[C@@H]2[C@@H](O)CCN2C(=O)[C@H]([C@H](O)CCN)NC(=O)[C@H]([C@H](O)[C@@H](O)c2ccc(O)cc2)NC(=O)[C@@H]2C[C@@H](O)CN2C(=O)[C@H]([C@@H](C)O)NC1=O` [Caspofungin, caspofungin] the MIC (Candida albicans; Candida albicans, Example 3, resistant strain, caspofungin alone) was 3 µg/mL, the MIC (Candida albicans; Candida albicans, Example 3, susceptible strain, caspofungin alone) was less than 0.05 µg/mL and the “caspofungin concentration producing fungicidal activity versus fungistatic concentration of caspofungin alone” value (Candida albicans; with carvacrol 0.3 mg/ml) was “at least six times lower”.
With `Nc1nc(=O)[nH]cc1F` [5-fluorocytosine] the MIC (Candida albicans; Candida albicans, Example 4, resistant strain, 5-fluorocytosine alone) was 25 µg/mL, the MIC (Candida albicans; Candida albicans, Example 4, susceptible strain, 5-fluorocytosine alone) was 2.5 µg/mL and the “5-fluorocytosine concentration producing fungicidal activity versus fungistatic concentration of 5-fluorocytosine alone” value (Candida albicans; resistant strains, with eugenol 0.5 mg/ml) was “five times lower”.
